Experimental data reported in the supplement of paper PMC12463676, “Small-molecule dissolution of stress granules by redox modulation benefits ALS models” (Nature Chemical Biology, 2025).

Legend:
lipoamide = compound: NC(=O)CCCCC1CCSS1 [lipoamide]; test: thermal stability z-score vs DMSO; higher = more thermally stabilized by treatment; conditions: HeLa, lipoamide concentration 100 µM
Description: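 Cellular thermal proteome profiling in HeLa cells. Cells were treated with 100 µM lipoamide for 1 h, with or without 1 mM arsenate for a further 1 h, then heated to ten temperatures (37-66.3 °C), and soluble protein was quantified by TMT mass spectrometry relative to 0.1% DMSO controls. The thermal stability score (sum of log2 fold changes minus the abundance score) was transformed to a z-score; mean of n = 3 experiments.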

potassium arsenate = compound: O=[As]([O-])(O)O.[K+] [potassium arsenate]; test: as above; conditions: HeLa; arsenate concentration 1 mM
Description: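 Cellular thermal proteome profiling in HeLa cells treated with 1 mM arsenate for 1 h (DMSO pretreatment), heated to ten temperatures (37-66.3 °C). Soluble protein was quantified by TMT mass spectrometry relative to DMSO controls; the thermal stability score was transformed to a z-score; mean of n = 3 experiments.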

[1] = arsenate co-treatment: 1 mM arsenate 1 h
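Note: each temperature applied for 3 min, abundance score taken as mean log2 fold change at the two lowest temperatures, z-score obtained by mean subtraction and division by SD.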

UniProt Q9NWV4, sequence (Q9NWV4 whole entry): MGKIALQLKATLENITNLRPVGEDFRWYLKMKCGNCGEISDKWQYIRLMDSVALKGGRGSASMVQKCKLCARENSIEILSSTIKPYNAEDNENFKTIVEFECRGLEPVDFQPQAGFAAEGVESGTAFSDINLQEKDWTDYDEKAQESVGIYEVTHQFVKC
UniProt Q687X5, sequence (Q687X5 whole entry): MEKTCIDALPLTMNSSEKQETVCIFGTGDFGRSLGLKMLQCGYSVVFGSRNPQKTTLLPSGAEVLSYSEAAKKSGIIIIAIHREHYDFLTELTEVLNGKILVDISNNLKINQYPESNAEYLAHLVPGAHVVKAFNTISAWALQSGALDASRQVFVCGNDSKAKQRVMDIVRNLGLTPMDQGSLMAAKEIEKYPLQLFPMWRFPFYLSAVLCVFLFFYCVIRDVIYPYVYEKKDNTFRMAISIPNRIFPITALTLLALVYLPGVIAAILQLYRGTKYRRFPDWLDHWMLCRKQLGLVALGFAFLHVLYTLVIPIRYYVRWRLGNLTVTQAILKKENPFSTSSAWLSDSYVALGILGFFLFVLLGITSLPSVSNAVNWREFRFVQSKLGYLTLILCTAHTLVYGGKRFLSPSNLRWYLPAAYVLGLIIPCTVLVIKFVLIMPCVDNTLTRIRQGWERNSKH
UniProt P78332, sequence (P78332 whole entry): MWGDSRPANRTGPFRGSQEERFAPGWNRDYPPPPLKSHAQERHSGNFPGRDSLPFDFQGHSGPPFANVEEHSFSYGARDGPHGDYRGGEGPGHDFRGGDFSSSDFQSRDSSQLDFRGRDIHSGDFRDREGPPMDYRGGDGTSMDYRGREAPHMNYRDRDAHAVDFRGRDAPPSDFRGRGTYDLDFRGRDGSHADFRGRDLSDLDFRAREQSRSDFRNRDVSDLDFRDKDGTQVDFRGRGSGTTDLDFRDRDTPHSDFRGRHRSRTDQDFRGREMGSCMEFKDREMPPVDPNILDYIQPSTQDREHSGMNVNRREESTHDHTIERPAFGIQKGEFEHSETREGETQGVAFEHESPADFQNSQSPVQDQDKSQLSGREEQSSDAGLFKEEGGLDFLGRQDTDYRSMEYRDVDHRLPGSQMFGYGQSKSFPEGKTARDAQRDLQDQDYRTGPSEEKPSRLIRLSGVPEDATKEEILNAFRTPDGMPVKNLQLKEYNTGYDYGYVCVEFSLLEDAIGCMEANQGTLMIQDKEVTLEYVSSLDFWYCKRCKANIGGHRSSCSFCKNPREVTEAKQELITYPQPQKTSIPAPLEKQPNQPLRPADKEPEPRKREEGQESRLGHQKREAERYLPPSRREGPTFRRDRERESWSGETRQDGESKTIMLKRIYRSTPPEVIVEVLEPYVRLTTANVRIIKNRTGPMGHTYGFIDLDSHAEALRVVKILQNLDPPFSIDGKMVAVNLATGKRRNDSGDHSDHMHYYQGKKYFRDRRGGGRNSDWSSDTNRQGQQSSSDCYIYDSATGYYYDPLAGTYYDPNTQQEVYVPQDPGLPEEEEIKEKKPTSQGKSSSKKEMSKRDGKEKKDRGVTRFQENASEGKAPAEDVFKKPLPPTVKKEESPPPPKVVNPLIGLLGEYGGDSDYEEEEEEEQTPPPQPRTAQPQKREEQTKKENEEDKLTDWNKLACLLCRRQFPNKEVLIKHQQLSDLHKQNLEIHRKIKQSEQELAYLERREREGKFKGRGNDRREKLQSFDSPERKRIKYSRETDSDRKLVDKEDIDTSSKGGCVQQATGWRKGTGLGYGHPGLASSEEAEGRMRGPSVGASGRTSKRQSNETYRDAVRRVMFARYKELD
UniProt Q14376, sequence (Q14376 whole entry): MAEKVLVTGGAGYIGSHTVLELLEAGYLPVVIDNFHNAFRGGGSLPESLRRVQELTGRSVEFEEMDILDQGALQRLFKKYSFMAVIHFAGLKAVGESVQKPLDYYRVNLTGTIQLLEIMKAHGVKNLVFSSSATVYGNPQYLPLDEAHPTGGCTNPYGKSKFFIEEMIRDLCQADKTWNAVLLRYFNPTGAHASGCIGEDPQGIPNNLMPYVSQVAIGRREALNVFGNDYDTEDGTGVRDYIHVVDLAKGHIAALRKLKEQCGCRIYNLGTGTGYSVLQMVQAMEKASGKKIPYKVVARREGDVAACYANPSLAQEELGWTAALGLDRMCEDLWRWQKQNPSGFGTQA
UniProt Q8IZ73, sequence (Q8IZ73 whole entry): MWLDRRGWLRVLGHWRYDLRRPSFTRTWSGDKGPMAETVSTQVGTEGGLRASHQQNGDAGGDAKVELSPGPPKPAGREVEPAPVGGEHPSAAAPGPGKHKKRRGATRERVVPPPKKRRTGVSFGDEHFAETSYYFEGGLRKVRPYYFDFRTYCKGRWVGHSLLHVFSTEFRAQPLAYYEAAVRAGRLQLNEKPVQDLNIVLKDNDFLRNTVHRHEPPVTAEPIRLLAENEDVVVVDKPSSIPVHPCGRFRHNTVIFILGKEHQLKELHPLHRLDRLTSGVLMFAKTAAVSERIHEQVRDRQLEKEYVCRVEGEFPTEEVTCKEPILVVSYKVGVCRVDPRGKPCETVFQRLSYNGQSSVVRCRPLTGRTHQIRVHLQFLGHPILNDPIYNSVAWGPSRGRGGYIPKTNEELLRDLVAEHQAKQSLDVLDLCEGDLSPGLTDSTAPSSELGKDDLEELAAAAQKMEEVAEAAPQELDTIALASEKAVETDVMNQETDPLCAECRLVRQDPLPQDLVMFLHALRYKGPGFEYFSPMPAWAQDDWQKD
UniProt P36941, sequence (P36941 whole entry): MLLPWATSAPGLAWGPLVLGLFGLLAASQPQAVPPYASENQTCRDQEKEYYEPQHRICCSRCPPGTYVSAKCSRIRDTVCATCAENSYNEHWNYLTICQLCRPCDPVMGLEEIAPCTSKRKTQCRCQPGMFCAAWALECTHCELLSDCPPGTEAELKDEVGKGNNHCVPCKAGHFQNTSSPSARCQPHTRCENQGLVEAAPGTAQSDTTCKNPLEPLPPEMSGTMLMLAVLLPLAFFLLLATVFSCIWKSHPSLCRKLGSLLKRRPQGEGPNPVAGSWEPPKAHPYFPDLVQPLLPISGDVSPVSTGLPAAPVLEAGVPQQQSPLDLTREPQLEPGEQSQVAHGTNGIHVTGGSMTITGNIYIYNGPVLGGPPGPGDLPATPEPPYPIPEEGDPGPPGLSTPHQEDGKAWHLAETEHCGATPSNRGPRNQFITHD
UniProt Q9HD42, sequence (Q9HD42 whole entry): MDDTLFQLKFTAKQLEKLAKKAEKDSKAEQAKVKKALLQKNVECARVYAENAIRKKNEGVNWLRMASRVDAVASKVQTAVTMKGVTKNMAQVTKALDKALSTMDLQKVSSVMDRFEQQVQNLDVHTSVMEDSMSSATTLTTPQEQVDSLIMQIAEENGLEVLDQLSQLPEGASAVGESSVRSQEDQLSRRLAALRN
UniProt O95551, sequence (O95551 whole entry): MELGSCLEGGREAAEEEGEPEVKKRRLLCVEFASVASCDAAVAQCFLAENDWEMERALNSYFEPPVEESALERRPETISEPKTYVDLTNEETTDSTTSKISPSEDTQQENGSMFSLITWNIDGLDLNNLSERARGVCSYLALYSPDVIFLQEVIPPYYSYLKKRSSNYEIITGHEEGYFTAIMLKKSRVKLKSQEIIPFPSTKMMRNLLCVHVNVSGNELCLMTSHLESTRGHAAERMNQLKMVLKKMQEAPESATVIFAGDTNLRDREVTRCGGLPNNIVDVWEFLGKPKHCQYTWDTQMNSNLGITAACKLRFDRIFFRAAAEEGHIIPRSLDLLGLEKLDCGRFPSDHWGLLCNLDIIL
UniProt Q96CP6, sequence (Q96CP6 whole entry): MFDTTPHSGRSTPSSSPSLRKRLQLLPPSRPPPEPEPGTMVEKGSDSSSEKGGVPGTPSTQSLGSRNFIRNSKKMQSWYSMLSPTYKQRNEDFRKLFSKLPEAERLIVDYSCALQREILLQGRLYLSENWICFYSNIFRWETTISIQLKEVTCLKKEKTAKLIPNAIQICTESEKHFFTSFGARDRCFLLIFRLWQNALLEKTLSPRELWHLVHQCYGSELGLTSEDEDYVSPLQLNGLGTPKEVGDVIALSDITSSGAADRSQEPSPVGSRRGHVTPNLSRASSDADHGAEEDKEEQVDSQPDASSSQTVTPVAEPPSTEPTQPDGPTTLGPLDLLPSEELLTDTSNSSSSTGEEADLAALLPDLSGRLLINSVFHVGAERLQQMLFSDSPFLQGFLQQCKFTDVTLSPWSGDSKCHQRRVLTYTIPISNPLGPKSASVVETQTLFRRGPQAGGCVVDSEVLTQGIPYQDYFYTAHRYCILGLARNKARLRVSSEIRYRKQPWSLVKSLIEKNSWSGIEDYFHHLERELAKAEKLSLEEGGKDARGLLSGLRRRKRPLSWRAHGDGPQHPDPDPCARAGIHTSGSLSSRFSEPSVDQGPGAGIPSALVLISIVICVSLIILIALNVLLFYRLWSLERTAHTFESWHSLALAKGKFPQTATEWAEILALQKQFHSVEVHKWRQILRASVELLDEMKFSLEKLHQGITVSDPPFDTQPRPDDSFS
UniProt Q9BRT2, sequence (Q9BRT2 whole entry): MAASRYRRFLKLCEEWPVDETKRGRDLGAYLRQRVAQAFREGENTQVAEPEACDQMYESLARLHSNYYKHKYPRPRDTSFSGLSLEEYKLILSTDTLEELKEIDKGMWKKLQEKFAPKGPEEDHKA
UniProt Q96QR8, sequence (Q96QR8 whole entry): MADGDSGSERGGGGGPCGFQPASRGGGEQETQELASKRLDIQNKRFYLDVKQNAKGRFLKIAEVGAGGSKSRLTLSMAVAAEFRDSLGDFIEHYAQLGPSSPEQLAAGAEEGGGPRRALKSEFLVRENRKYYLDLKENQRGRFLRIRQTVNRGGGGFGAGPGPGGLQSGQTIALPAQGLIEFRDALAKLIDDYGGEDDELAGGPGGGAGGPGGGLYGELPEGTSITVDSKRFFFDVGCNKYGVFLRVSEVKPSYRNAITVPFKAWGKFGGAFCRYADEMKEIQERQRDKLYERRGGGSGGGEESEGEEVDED
UniProt P68036, sequence (P68036 whole entry): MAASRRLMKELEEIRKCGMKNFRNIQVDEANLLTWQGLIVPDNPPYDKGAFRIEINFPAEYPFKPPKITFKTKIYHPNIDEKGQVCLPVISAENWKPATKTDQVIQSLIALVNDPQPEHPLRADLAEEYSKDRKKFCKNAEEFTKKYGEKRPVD

| Target | thermal stability z-score (lipoamide; [1]) | thermal stability z-score (lipoamide; arsenate co-treatment: none) | thermal stability z-score (potassium arsenate) |
| --- | --- | --- | --- |
| NIPSNAP1 (UniProt Q9BPW8) | -1.48 | -0.204 | -0.872 |
| STEAP4 (UniProt Q687X5) | 0.438 | 0.75 | 0.565 |
| SNAP23 (UniProt O00161) | 0.994 | 1.06 | -0.16 |
| GIGYF1 (UniProt O75420) | 0.0328 | 0.0305 | 0.0812 |
| GGCT (UniProt O75223) | 1.7 | 1.02 | 1.11 |
| RABGAP1L | -0.279 | -0.536 | 0.339 |
| RANBP3 (UniProt Q9H6Z4) | -0.326 | 0.21 | -0.0109 |
| PPP2R4 (UniProt Q15257) | 0.108 | 0.233 | -0.0643 |
| P4HA1 (UniProt P13674) | -4.31 | -3.57 | 1.27 |
| CDK6 (UniProt Q00534) | -0.218 | 0.136 | 0.123 |
| TMEM208 (UniProt Q9BTX3) | 0.0799 | -0.132 | -0.159 |
| S100A10 (UniProt P60903) | 1.65 | 1.54 | 0.372 |
| OTUD6B (UniProt Q8N6M0) | 0.504 | -0.85 | 0.0655 |
| ALDH9A1 (UniProt P49189) | -0.257 | -0.212 | -1.15 |
| AK6 (UniProt Q9Y3D8) | -0.665 | -0.877 | -2.09 |
| NR3C1 (UniProt P04150) | -0.273 | -0.664 | -0.462 |
| TBC1D10B (UniProt Q4KMP7) | -0.825 | -0.121 | -0.503 |
| DBT (UniProt P11182) | -0.65 | -0.0292 | -1.75 |
| GLMP (UniProt Q8WWB7) | 2.79 | 3.71 | 3.11 |
| RPL31 (UniProt P62899) | -0.223 | -0.0856 | -0.8 |
| RXRB (UniProt P28702) | 0.117 | 0.096 | -0.458 |
| C1ORF123 (UniProt Q9NWV4) | -0.384 | -0.409 | -0.929 |
| RING1 (UniProt Q06587) | -0.0364 | 0.0555 | -0.0985 |
| ITPRIPL2 (UniProt Q3MIP1) | -0.176 | -0.34 | -0.0231 |

| Target | thermal stability z-score (lipoamide; [1]) | thermal stability z-score (lipoamide; arsenate co-treatment: none) | thermal stability z-score (potassium arsenate) |
| --- | --- | --- | --- |
| ANO6 (UniProt Q4KMQ2) | -0.102 | -0.0242 | -0.286 |
| GLRX3 (UniProt O76003) | 0.153 | 0.465 | 0.88 |
| UQCC2 (UniProt Q9BRT2) | 0.0305 | -0.239 | 0.139 |
| ANKRD17 (UniProt O75179) | -0.568 | -0.123 | -0.27 |
| BBX (UniProt Q8WY36) | -0.177 | -0.12 | -0.402 |
| DHX37 (UniProt Q8IY37) | 0.321 | 0.303 | 0.359 |
| CAP2 (UniProt P40123) | 0.00549 | -0.126 | 0.329 |
| GRAMD1A (UniProt Q96CP6) | -1.5 | -1.05 | 0.0677 |
| SLC39A11 (UniProt Q8N1S5) | 0.867 | 0.694 | 0.429 |
| CHMP1A (UniProt Q9HD42) | 0.125 | 0.254 | 0.38 |
| POMK (UniProt Q9H5K3) | 0.213 | -0.243 | -0.285 |
| APTX (UniProt Q7Z2E3) | 0.0235 | 0.0974 | -0.253 |
| MRPL10 (UniProt Q7Z7H8) | 0.127 | 0.224 | 0.0461 |
| BROX (UniProt Q5VW32) | 1.03 | 1.02 | -0.0457 |
| CHMP2A (UniProt O43633) | -0.041 | 0.185 | 0.392 |
| NECAP1 (UniProt Q8NC96) | 0.133 | 0.451 | -0.194 |
| ECD (UniProt O95905) | -0.47 | -0.00943 | -0.232 |
| ELAVL2 (UniProt Q12926) | -0.19 | -0.197 | -0.564 |
| RMDN3 (UniProt Q96TC7) | -0.522 | -0.501 | 0.289 |
| LTBR (UniProt P36941) | -2.06 | -1.66 | 0.85 |
| HSD17B4 (UniProt P51659) | 0.258 | 0.497 | 0.201 |
| SH2D3A (UniProt Q9BRG2) | 0.139 | -0.263 | 0.0147 |
| TDP2 (UniProt O95551) | 0.0323 | -0.0541 | 0.242 |
| GPX8 (UniProt Q8TED1) | -4.37 | -5.4 | 0.394 |

| Target | thermal stability z-score (lipoamide; [1]) | thermal stability z-score (lipoamide; arsenate co-treatment: none) | thermal stability z-score (potassium arsenate) |
| --- | --- | --- | --- |
| MED15 (UniProt Q96RN5) | -0.382 | -0.574 | -2.01 |
| NECTIN2 (UniProt Q92692) | 0.434 | 0.196 | 0.0945 |
| RPUSD2 (UniProt Q8IZ73) | -0.528 | 0.461 | 0.29 |
| MTMR10 (UniProt Q9NXD2) | -0.108 | 0.0107 | -0.188 |
| AKAP11 (UniProt Q9UKA4) | 0.0955 | 0.0515 | -0.0869 |
| APRT (UniProt P07741) | 0.387 | 0.419 | 0.345 |
| RAP1B (UniProt P61224) | 0.74 | 0.45 | 0.17 |
| UBE2L3 (UniProt P68036) | 0.00366 | -0.189 | -0.555 |
| RNASEH2A (UniProt O75792) | 0.0654 | 0.493 | 0.138 |
| OAT (UniProt P04181) | -0.684 | -0.588 | 3.08 |
| QDPR (UniProt P09417) | 0.36 | 0.387 | -1.26 |
| PKP2 (UniProt Q99959) | 0.0483 | -0.112 | -0.371 |
| DNAJB6 (UniProt O75190) | 1.19 | 0.248 | 0.728 |
| PTRH2 (UniProt Q9Y3E5) | -0.239 | -0.143 | -0.0653 |
| TMTC3 (UniProt Q6ZXV5) | -1.23 | -0.796 | 0.605 |
| PURB (UniProt Q96QR8) | 0.083 | 0.15 | 0.364 |
| DHCR24 (UniProt Q15392) | 0.408 | 0.354 | 0.726 |
| PCGF5 (UniProt Q86SE9) | 0.0387 | 0.0817 | -0.181 |
| RNPEP (UniProt Q9H4A4) | 0.126 | -0.189 | 0.878 |
| RBM6 (UniProt P78332) | -0.00588 | 0.0644 | 0.000188 |
| TPP1 (UniProt O14773) | -0.299 | -0.137 | -0.0975 |
| GALE (UniProt Q14376) | 0.0359 | -0.161 | -2.31 |
| TBCE (UniProt Q15813) | -0.969 | -0.354 | -0.0811 |
